For 21 molecules, EC50 results are on record in patent US20240018145A1, “[…]-DEPENDENT EN[…] TREATING OR […]” (priority 2020, published 2024).

SMILES strings stand for the structures. pEC50: −log10 of the molar value. A value given as a limit tells only on which side of the number the result lay.

The first assay has as its system FLU A (PR/8/34). Kind of assay: Flu A Neuraminidase Antiviral Assay. It counts as cell-based.
Details: not given
Broadly, the pEC50 is the negative decadic logarithm of the EC50, by convention in mol/L. On to `Cc1ccccc1C1C(CC(F)(F)F)CCC2(C)N(C)C(=O)c3c(O)c(=O)ccn3N12` (single isomer, unassigned) [Compound 87B, 7-hydroxy-4a,5-dimethyl-1-(o-tolyl)-2-(2,2,2-trifluoroethyl)-1,2,3,4,4a,5-hexahydrodipyrido[1,2-b:2′,1′-f][1,2,4]triazine-6,8-dione], for which the pEC50 is 8.44.

In turn, `CN1C(=O)c2c(O)c(=O)ccn2N2C(c3ccccc3)C(c3cc(F)c(F)cc3F)CCC12` (single isomer, unassigned) [Compound 86C, 7-hydroxy-5-methyl-1-phenyl-2-(2,4,5-trifluorophenyl)-1,2,3,4,4a,5-hexahydrodipyrido[1,2-b:2′,1′-f][1,2,4]triazine-6,8-dione] gave a negative-log EC50 (pEC50) of 6.64. Against the preceding molecule, the pEC50 is 1.80 log units lower.

`CN1C(=O)c2c(O)c(=O)ccn2N2C(c3cc(F)ccc3C(F)(F)F)CCCC12` (single isomer, unassigned) [Compound 13A, 1-(5-fluoro-2-(trifluoromethyl)phenyl)-7-hydroxy-5-methyl-1,2,3,4,4a,5-hexahydro-dipyrido[1,2-b:2′,1′-f][1,2,4]triazine-6,8-dione] showed a negative logarithm of the EC50 (pEC50) of under 5.09.

On to `CN1C(=O)c2c(O)c(=O)ccn2N2C1CCCC21CCc2ccccc21` (single isomer, unassigned) [Compound 21B, 7-hydroxy-5-methyl-2′,3,3′,4,4a,5-hexahydro-2H-spiro[dipyrido[1,2-b:2′,1′-f][1,2,4]triazine-1,1′-indene]-6,8-dione], for which the negative-log EC50 (pEC50) was 8.59.

In the case of `Cc1cc(=O)c(O)c2n1N1C(c3ccccc3)C(CC(F)(F)F)CCC1N(C)C2=O` (single isomer, unassigned) [Compound 132A, 7-hydroxy-5,10-dimethyl-1-phenyl-2-(2,2,2-trifluoroethyl)-1,2,3,4,4a,5-hexahydrodipyrido[1,2-b:2′,1′-f][1,2,4]triazine-6,8-dione], the negative-log EC50 (pEC50) was under 6.09.

Regarding `CN1C(=O)c2c(O)c(=O)ccn2N2C1CCC1(CC(F)(F)C1)C2c1ccccc1` (single isomer, unassigned) [Compound 74C, 3,3-difluoro-7′-hydroxy-5′-methyl-1′-phenyl-3′,4′,4a′,5′-tetrahydro-1′H-spiro[cyclobutane-1,2′-dipyrido[1,2-b:2′,1′-f][1,2,4]triazine]-6′,8′-dione], the negative logarithm of the EC50 (pEC50) was 7.49.

`CC1(c2ccccc2)CCCC2N(CC(F)(F)F)C(=O)c3c(O)c(=O)ccn3N21` (single isomer, unassigned) [Compound 34B, 7-hydroxy-1-methyl-1-phenyl-5-(2,2,2-trifluoroethyl)-1,2,3,4,4a,5-hexahydrodipyrido[1,2-b:2′,1′-f][1,2,4]triazine-6,8-dione] showed a negative logarithm of the EC50 (pEC50) of 8.31. Against the preceding molecule, the pEC50 is 0.82 log units higher.

The molecule `CN1C(=O)c2c(O)c(=O)ccn2N2C(c3cccc(Br)c3)C(CC(F)(F)F)CCC12` (single isomer, unassigned) [Compound 83B, 1-(3-bromophenyl)-7-hydroxy-5-methyl-2-(2,2,2-trifluoroethyl)-1,2,3,4,4a,5-hexahydrodipyrido[1,2-b:2′,1′-f][1,2,4]triazine-6,8-dione] had a pEC50 of 8.66.

For `CN1C(=O)c2c(O)c(=O)ccn2N2C(c3ccccc3Cl)C(CCO)CCC12` (stereo not drawn) [Compound 66B, 1-(2-chlorophenyl)-7-hydroxy-2-(2-hydroxyethyl)-5-methyl-1,2,3,4,4a,5-hexahydrodipyrido[1,2-b:2′,1′-f][1,2,4]triazine-6,8-dione], the pEC50 was 6.74.

`CN1C(=O)c2c(O)c(=O)ccn2N2C1CCCC2(C)c1c(F)cccc1F` (single isomer, unassigned) [Compound 23A, 1-(2,6-difluorophenyl)-7-hydroxy-1,5-dimethyl-1,2,3,4,4a,5-hexahydrodipyrido[1,2-b:2′,1′-f][1,2,4]triazine-6,8-dione] gave a negative-log EC50 (pEC50) of under 5.09.

For the molecule `Cc1ccccc1C1C(CC2CC2(F)F)CCC2N(C)C(=O)c3c(O)c(=O)ccn3N12` (single isomer, unassigned) [Compound 88D], the pEC50 was 8.54.

`CN1C(=O)c2c(O)c(=O)ccn2N2C1CCCC2(C)c1ccccc1` (single isomer, unassigned) [Compound 18B, 7-hydroxy-1,5-dimethyl-1-phenyl-1,2,3,4,4a,5-hexahydrodipyrido[1,2-b:2′,1′-f][1,2,4]triazine-6,8-dione] showed a negative-log EC50 (pEC50) of 6.45.

Turning to `CN1C(=O)c2c(O)c(=O)ccn2N2C(c3ccccc3)C(C3CCC(F)(F)CC3)CCC12` (single isomer, unassigned) [Compound 84A, 2-(4,4-difluorocyclohexyl)-7-hydroxy-5-methyl-1-phenyl-1,2,3,4,4a,5-hexahydrodipyrido[1,2-b:2′,1′-f][1,2,4]triazine-6,8-dione], the pEC50 was under 6.09.

The molecule `Cc1cc(=O)c(O)c2n1N1C(c3ccccc3)C(CC(F)(F)F)CCC1N(C)C2=O` (single isomer, unassigned) [Compound 132C, 7-hydroxy-5,10-dimethyl-1-phenyl-2-(2,2,2-trifluoroethyl)-1,2,3,4,4a,5-hexahydrodipyrido[1,2-b:2′,1′-f][1,2,4]triazine-6,8-dione] gave a negative-log EC50 (pEC50) of under 6.09.

With `CN1C(=O)c2c(O)c(=O)ccn2N2C1CCCC2(C)c1ccccc1` (single isomer, unassigned) [Compound 18A, 7-hydroxy-1,5-dimethyl-1-phenyl-1,2,3,4,4a,5-hexahydrodipyrido[1,2-b:2′,1′-f][1,2,4]triazine-6,8-dione], the pEC50 was 8.15.

Regarding `CN1C(=O)c2c(O)c(=O)ccn2N2C(c3ccccc3)C(CCC(F)(F)F)CCC12` (single isomer, unassigned) [Compound 128B, 7-hydroxy-5-methyl-1-phenyl-2-(3,3,3-trifluoropropyl)-1,2,3,4,4a,5-hexahydrodipyrido[1,2-b:2′,1′-f][1,2,4]triazine-6,8-dione], the negative logarithm of the EC50 (pEC50) is 8.82.

The molecule `CCN1C(=O)c2c(O)c(=O)ccn2N2C1CCC1(CCC(F)(F)CC1)C2c1ccccc1` (single isomer, unassigned) [Compound 76A] had a pEC50 of under 6.09.

The assay is the same for the next values; noted with them: MDCK, 48 h.
Consider `CN1C(=O)c2c(O)c(=O)ccn2N2C(c3ccccc3)[C@H]3CCCC[C@H]3C12` (stereo partly drawn) [Compound 16, (6bR,10aS)-4-hydroxy-6-methyl-11-phenyl-6a,6b,7,8,9,10,10a,11-octahydro-3H-pyrido[1′,2′:1,6][1,2,4]triazino[3,2-a]isoindole-3,5(6H)-dione], for which the negative logarithm of the EC50 (pEC50) was 5.39.

Take `CN1C(=O)c2c(O)c(=O)ccn2N2C1CC[C@H]1CCc3ccccc3[C@H]12` (stereo partly drawn) [Compound 150, Cis-16-hydroxy-2-methyl-2,2a,3,4,4a,5,6,10b-octahydrobenzo[h]pyrido[1′,2′:1,6][1,2,4]triazino[2,3-a]quinoline-1,15-dione]: the pEC50 was 7.16. Compared with the last molecule, the pEC50 is 1.77 log units higher.

`CN1C(=O)c2c(O)c(=O)ccn2N2C1CC[C@H](OCC=C(F)F)[C@@]2(C)c1ccccc1` (stereo partly drawn) [Compound 151]: the pEC50 was under 6.09.

`CN1C(=O)c2c(O)c(=O)ccn2N2[C@H](c3ccccc3)[C@@H](n3cc(CO)nn3)CC[C@@H]12` [Compound 141, (1R,2S,4aS)-7-hydroxy-2-(4-(hydroxymethyl)-1H-1,2,3-triazol-1-yl)-5-methyl-1-phenyl-1,2,3,4,4a,5-hexahydrodipyrido[1,2-b:2′,1′-f][1,2,4]triazine-6,8-dione] had a negative-log EC50 (pEC50) of under 5.09.
